Measurements as given in patent US20110263429A1, “Pesticidal Combinations” (priority 2008, published 2011).

What was measured:
cutworm (Agrotis sp.) = experiment: Field seed-treatment trial, cutworm larvae count per plot; type: in vivo; details: for Control (%) Observed: seed treatment, field with heavy Agrotis sp. population, larvae per plot counted 22 days after planting, 4 replicates, fludioxonil + mefenoxam base treatment
Description: (§1) An unexpected effect exists whenever the action of an active ingredient combination is greater than the sum of the actions of the individual components.
(§2) The action to be expected E for a given active ingredient combination obeys the so-called COLBY formula and can be calculated as follows (COLBY, S. R. “Calculating synergistic and antagonistic responses of herbicide combination”. Weeds, Vol. 15, pages 20-22; 1967):
(§3) ppm=milligrams of active ingredient (=a.i.) per liter of spray mixture X=% action by active ingredient A) using p ppm of active ingredient Y=% action by active ingredient B) using q ppm of active ingredient.
(§4) According to COLBY, the expected (additive) action of active ingredients A)+B) using p+q ppm of active ingredient is
(§5) If the action actually observed (O) is greater than the expected action (E), then the action of the combination is super-additive, i.e. there is a synergistic effect.
In a field having a heavy population of cutworm (Agrotis sp.), seeds are planted that have the following treatments: • (a) a compound of formula (X) (0.6 mg ai/seed) • (b) thiamethoxam (0.63 mg ai/seed) • (c) a compound of formula (X) (0.6 mg ai/seed)+thiamethoxam (0.63 mg ai/seed)
For all treatments, including check, fludioxonil (2.5 g ai/100 kg seeds) and mefenoxam (1.0 g ai/100 kg seeds) were used as a fungicide base treatment.
Assessment: Count number larvae per plot (22 days after planting) Number of replicates: 4

[1] = system: cutworm (Spodoptera littoralis); experiment: Field seed-treatment trial, plant count per plot; type: in vivo; details: field with heavy Spodoptera littoralis population, plants per plot counted 13 days after planting, 4 replicates, fludioxonil + mefenoxam base treatment
Description: as §1, §2, §3, §4, §5
In a field having a heavy population of cutworm (Spodoptera littoralis), seeds are planted that have the following treatments: • (a) a compound of formula (X) (0.6 mg ai/seed) • (b) thiamethoxam (0.63 mg ai/seed) • (c) a compound of formula (X) (0.6 mg ai/seed)+thiamethoxam (0.63 mg ai/seed)
For all treatments, including check, fludioxonil (2.5 g ai/100 kg seeds) and mefenoxam (1.0 g ai/100 kg seeds) were used as a fungicide base treatment. […]

CN1COCN(Cc2cnc(Cl)s2)/C1=N\[N+](=O)[O-] [(b), thiamethoxam]
Control (%) Observed (cutworm (Agrotis sp.)): 31% | % Control Observed [1]: 40%

mixture of 5,6-Dihydro-3′-O-ethyl Spinosyn J (RN: 187166-40-1 and 3′-O-Ethyl Spinosyn L (RN: 187166-15-0) in a weight ratio of 50-90%:10-50% [(a)]
Control (%) Colby expected (cutworm (Agrotis sp.); expected (additive) action by COLBY formula, Agrotis sp., 22 days after planting): 15% | Control (%) Observed (cutworm (Agrotis sp.)): 50% | % Control Observed [1]: 48%
